Data on 3 compounds can be found in publication PMC6058497 (Drug Delivery, 2018).

One may read the AUC(0-inf) as the area under the concentration-time curve extrapolated to infinity. Low readings indicate low exposure, high ones high exposure. In general, AUC(0-t) refers to exposure summed from dosing to a finite time, without extrapolation to infinity. Read a high AUC(0-t) as more exposure. Broadly, the Cmax is the highest concentration seen after dosing. Usually Tmax stands for the time at which the peak concentration occurs. By half-life is commonly meant the time needed for the level to fall by half in the phase considered. For orientation: solubility means how much of the substance goes into solution per volume. A lower solubility goes with little dissolved substance.

Converted amounts (≈) assume the structure as drawn. Like-named read-outs stand apart in the source and are kept apart here.

A short description of series [1]: Oral pharmacokinetic (bioavailability) study in rats. The format is in vivo. As to conditions: male, Sprague Dawley; rat plasma, single oral dose 150 mg/kg Cur. Here is the method:
The pharmacokinetic study was carried out in male Sprague Dawley rats (10 weeks of age, 250–260 g body weight, provided by the Zhejiang Academy of Medical Science, Hangzhou, China). All animal (used in this experiment) handling procedures were performed in strict compliance with the PR China legislation for the use and care of laboratory animals and were approved by the University Committee for Animal Experiments. The animals were fasted overnight (12 h) and had free access to drinking water throughout the experimental period. […] To evaluate the concentration of Cur in plasma, blood was collected into heparinized Eppendroff tubes at different time points: 0.083, 0.25, 0.5, 1, 2, 4, 6, 8, 12, and 24 h post-dosing and centrifuged (Sigma Laboratory Centrifuge, Model 3K-30, Osterode am Harz, Germany) at 9391 × g for 5 min to separate the plasma. The plasma samples were stored at –80 °C until further analysis.
A 100 μL aliquot of plasma was transferred to a clean microcentrifuge tube and next treated with 100 μL of a solution containing 1000 U of β-glucuronidase in 0.1 M phosphate buffer (pH 6.8). The resulting mixture was then thoroughly vortexed and incubated at 37 °C for 1 h to hydrolyze the conjugated Cur. After incubation, 0.1 mL acetonitrile was added to 0.1 mL of plasma and centrifuged (Sigma Laboratory Centrifuge, Model3K-30, Osterode am Harz, Germany) at 9391 × g for 15 min, and then the supernatant was subjected to be analyzed by HPLC.
Standard pharmacokinetic parameters for free Cur and Cur SDs were calculated by linear trapezoidal method using the PKSolver, a freely available menu-driven add-in program for Microsoft Excel. The results were presented as mean ± standard error of the mean (SEM). One-way analysis of variance (ANOVA) was followed by Dunnett’s test for multiple comparisons statistical evaluation. p Values <.05 were considered significant.

Details of series [2]: method as in Priyadarsini, 2014. Particulars: acidic and neutral pH; ref Priyadarsini, 2014; cited from earlier work.
Series [3] in a line: Solubility determination in distilled water (HPLC). The format is physicochemical. As to conditions: +37 °C. Here is the method: The amount of Cur was determined by using a high performance liquid chromatography (HPLC) system (Agilent 1200, Santa Clara, CA) with column Zorbax Eclipse XDB-C18, 4.6 × 50 mm at +30 °C and diode-array detector. Acetonitrile–acetate buffer (55:45) was used as eluent (pH = 3.4) with flow rate of 1.0 mL/min, and detection wavelength was 430 nm. […] At last, sample solutions were filtered and analyzed by HPLC.

In the next series the test system is U-87 MG cells. As to the kind of experiment: MTT cytotoxicity test, U-87 MG. The format is cell-based, human. Here is the method:
(§1) Cancer cell lines U-87 MG (glioblastoma) and MCF-7 (breast cancer) were obtained from the ATCC (ATCC number HTB-14 and HTB-22, respectively). Immortalized human fibroblasts used as normal cells were kindly provided by Alexander G. Shilov (Institute of Cytology and Genetics SB RAS). The cells were maintained in DMEM plus 10% FBS, under a temperature of 37 °C, atmosphere of 5% of CO2 and 90% humidity.
(§2) MTT test was performed according to a standard procedure (Mosmann, [1983]). Cells were seeded in a 96-well plate at a density of 5 × 10^3 cells/well and after 24 h of adherence, the cells were treated with different concentration of test compounds and incubated for 48 h at 37 °C in an atmosphere of 5% CO2 in air. Untreated cells were used as negative control and doxorubicin was used as a positive control. After the incubation period, 10 μL MTT solution (3 mg/mL of PBS) was added to each well followed by incubation for 3 h under the condition mentioned above. Then, the MTT-containing medium was removed and the formazan crystals were dissolved with 100 μL of isopropanol. Absorbance was measured at 630 and 492 nm using a microplate reader (Thermo Scientific, Waltham, MA). The cell viability percentage was calculated using the following formula: Viability (%)=OD (treated cells)/OD (untreated cells) × 100, where OD was an optical density of solution.
(Tetrazolium assays rely on reduction of a dye to a coloured formazan, in cell work by metabolically active cells.)

For series [4] the following is noted: cited from earlier work.
The nature of series [5]: Molecular weight distribution by gel permeation chromatography. Format: physicochemical. As to conditions: dissolved in water. Here is the method: The molecular weight distribution (MWD) of the samples was investigated by gel permeation chromatography (GPC) on the Agilent 1200 chromatograph with column PL aquel-OH 40 (Santa Clara, CA), 300 × 7.5 mm column at 30 °C with refractometric detector. The solvent used was 0.02% NaN3 aqueous solution and flow rate was 1 mL/min. The calibration was performed by standard dextrans with molecular weights of 1, 5, 12, 25, 80, 150, 270, and 410 kDa. Agilent GPC data analysis program was used to process the results (Santa Clara, CA).

Series [6] relates to immortalized human fibroblasts. Nature of the series: MTT cytotoxicity test, immortalized human fibroblasts. Particulars: for Viability: 48 h. Format: cell-based. On the procedure:
as §1, §2

For another series, the system named is MCF-7 cells. As to the kind of experiment: MTT cytotoxicity test, MCF-7. Particulars: for Viability: 48 h. Format: cell-based, human. On the procedure: as §1, §2

On to `COc1cc(/C=C/C(=O)CC(=O)/C=C/c2ccc(O)c(OC)c2)ccc1O` [Free Cur, Curcumin], for which, in series [1], the AUC(0-inf) came out at 14300 ± 720 ng·h/mL, the AUC(0-t) came to 12100 ± 360 ng·h/mL, the Cmax came out at 1480 ± 30 ng/mL and the Tmax was 0.25 h. The half-life in series [1] was 5.07 ± 0.41 h. Moreover, the Solubility in water entry in series [2] is recorded as “practically insoluble”. In addition, the concentration in solution in series [3] (solubility at 12 h) was 1.73 µg/mL (≈ 4.7 µM). In addition, the Mean cell survival result in the series with U-87 MG cells (Cur concentration range 25–100 μM, 48 h) is “above 80%”.
On to `CC1(C)[C@@H](O[C@H]2O[C@H](C(=O)O)[C@@H](O)[C@H](O)[C@H]2O[C@@H]2O[C@H](C(=O)O)[C@@H](O)[C@H](O)[C@H]2O)CC[C@]2(C)[C@H]3C(=O)C=C4[C@@H]5C[C@@](C)(C(=O)O)CC[C@]5(C)CC[C@@]4(C)[C@]3(C)CC[C@@H]12` [GA, Glycyrrhizic acid], for which, in series [4] (dissolved in water, ref Dushkin & Tolstikova, 2012), the “Molecular weight of micelles formed in water” value was 66 kDa. Besides, the Critical micelle concentration in series [4] (ref Kornievskaya et al., 2007, Polyakov, 2011) is around 1 mM.
As for `CC1(C)[C@@H](O[C@H]2O[C@H](C(=O)[O-])[C@@H](O)[C@H](O)[C@H]2O[C@@H]2O[C@H](C(=O)O)[C@@H](O)[C@H](O)[C@H]2O)CC[C@]2(C)[C@H]3C(=O)C=C4[C@@H]5C[C@@](C)(C(=O)[O-])CC[C@]5(C)CC[C@@]4(C)[C@]3(C)CC[C@@H]12.[Na+].[Na+]` [Na2GA, disodium glycyrrhizin], the “Molecular weight of micelles formed in water” value in series [5] is listed as 85–90 kDa. In addition, the Viability with U-87 MG cells (25 μM, 48 h) came out at 96.6 ± 2.39%; in the series on U-87 MG cells (50 μM, 48 h), 95.9 ± 1.16%; in the series on U-87 MG cells (100 μM, 48 h) it was 92.2 ± 2.75%; with U-87 MG cells (200 μM, 48 h), 92.2 ± 2.63%; in the series on U-87 MG cells (400 μM, 48 h), 92.9 ± 1.65%; in series [6] (25 μM), 96.2 ± 2.78%. The Viability in series [6] (50 μM) came to 97.3 ± 1.73%; in series [6] (100 μM) it was 98.8 ± 4.18%; in series [6] (200 μM), 96.0 ± 1.66%; in series [6] (400 μM), 98.3 ± 0.90%; in the series on MCF-7 cells (MCF-7, 25 μM), 98.2 ± 2.13%; in the series on MCF-7 cells (MCF-7, 50 μM) it was 97.8 ± 3.33%. For the same compound, the Viability with MCF-7 cells (MCF-7, 100 μM) was found to be 98.2 ± 0.41%; in the series on MCF-7 cells (MCF-7, 200 μM), 98.7 ± 1.59%; with MCF-7 cells (MCF-7, 400 μM), 99.6 ± 1.34%. In addition, the Cytotoxicity entry is listed as “no cytotoxicity” in the series with U-87 MG cells (25–400 μM); “no cytotoxicity” in series [6] (25–400 μM); “no cytotoxicity” with MCF-7 cells (MCF-7, 25–400 μM).
